Experimental data as given in patent US11484479B2, “Formulation for the elimination of cariogenic and opportunistic pathogens within the oral cavity” (Research Institute at Nationwide Children's Hospital, priority 2015, dated 2022).

Key:
[1] = system: S. gordonii; assay: Toxic cargo DM assay; assay type: cell-based, Streptococcus gordonii; settings: monoculture, 1 min; CHX 0.033% and H2O2 0.25% final concentration, no DM (FIG. 8A left)
Description: (§1) DM was hydrated in THB only (control) or THB containing either hydrogen peroxide (1.5%) or chlorhexidine (0.2%) to create a 10% (w/v) slurry. For Applicant's DM assays, 250 μl of hydrated DM G25 superfine (125 μl final volume; 12.5 mg) was added to a Micro Bio-Spin chromatography column (BioRad, Hercules, Calif.) and excess liquid was removed by centrifugation at 100×g for 30 seconds, leaving DM with toxic cargo in the lumen. 125 μl of THB (the same volume of excess toxic cargo removed by filtration) was added to the DM column to create a 10% slurry (w/v), followed by the immediate addition of 500 μl of culture as described above for Applicant's basic DM assay. For control assays containing no DM, 125 μl of THB or THB containing toxic cargo (the same volume that is present in the DM lumen) was added to the spin column containing 125 THB followed by the addition of 500 μl of culture as described above for Applicant's basic DM assay. After incubation for 1 minute at RT, the cell/DM mixture was centrifuged for 1 minute at 100×g. The flow-through was serial diluted in PBS, and serial dilutions were plated onto THB (S. gordonii) or THB containing 1.5 μg/ml erythromycin (S. mutans) or LB (E. coli) agar and incubated at 37° C.+5% CO2. […]

[2] = system: S. mutans; assay: Toxic cargo DM assay; assay type: cell-based, Streptococcus mutans; settings: monoculture, 1 min; CHX 0.033% and H2O2 0.25% final concentration, no DM (FIG. 8A left)
Description: as §1

Structure (SMILES) | Total viable S. gordonii after antimicrobial alone (no DM) [1] | Total viable S. mutans after antimicrobial alone (no DM) [2]
OO [H2O2, hydrogen peroxide] | decreased the amount of total viable S. mutans and S. gordonii | decreased the amount of total viable S. mutans and S. gordonii
[H]/N=C(\N/C(=N/[H])NCCCCCCNC(=N)NC(=N)Nc1ccc(Cl)cc1)Nc1ccc(Cl)cc1 [CHX, chlorhexidine] | decreased the amount of total viable S. mutans and S. gordonii | decreased the amount of total viable S. mutans and S. gordonii
